Here are results for 2 compounds from ChEMBL document CHEMBL6134904, “Discovery of Potent PDEδ/NAMPT Dual Inhibitors: Preclinical Evaluation in KRAS Mutant Pancreatic Cancer Cells” (J Med Chem, 2025).

Assay [1] has as its system MIA PaCa-2. Kind of assay: cells. The conditions noted are these: Homo sapiens, MIA PaCa-2, 72 h.
Description: Antiproliferative activity against human MIA PaCa-2 cells assessed as inhibition of cell growth incubated for 72 hrs by CCK8 assay
Assay [2] has as its system HCT-116. Kind of assay: cells. The conditions noted are these: Homo sapiens, HCT-116, 72 h.
Description: Antiproliferative activity against human HCT-116 cells assessed as inhibition of cell growth incubated for 72 hrs by CCK8 assay
Assay [3] concerns A549. Kind of assay: cells. The conditions noted are these: Homo sapiens, A549, 72 h.
Description: Antiproliferative activity against human A549 cells assessed as inhibition of cell growth incubated for 72 hrs by CCK8 assay
Assay [4] deals with Nicotinamide phosphoribosyltransferase (Homo sapiens, UniProt P43490).
Chain of Nicotinamide phosphoribosyltransferase (P43490 whole entry): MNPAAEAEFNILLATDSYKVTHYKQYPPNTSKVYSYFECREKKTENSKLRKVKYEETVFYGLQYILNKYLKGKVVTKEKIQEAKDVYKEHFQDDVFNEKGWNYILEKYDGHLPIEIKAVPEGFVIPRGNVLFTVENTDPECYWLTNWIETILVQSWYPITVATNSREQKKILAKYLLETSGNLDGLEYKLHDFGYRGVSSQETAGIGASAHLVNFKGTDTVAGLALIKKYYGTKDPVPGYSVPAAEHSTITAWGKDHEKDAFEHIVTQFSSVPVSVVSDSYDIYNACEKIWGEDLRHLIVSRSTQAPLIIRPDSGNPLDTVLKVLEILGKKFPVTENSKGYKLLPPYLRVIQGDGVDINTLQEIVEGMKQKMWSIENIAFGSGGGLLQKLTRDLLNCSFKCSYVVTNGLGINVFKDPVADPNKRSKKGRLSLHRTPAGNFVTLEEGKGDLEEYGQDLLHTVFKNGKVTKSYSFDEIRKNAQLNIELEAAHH
Description: Inhibition of NAMPT (unknown origin) using NAM as substrate preincubated for 5 mins followed by substrate addition and measured after 15 mins by fluorescence based microtiter plate reader analysis
Assay [5] relates to A549. Kind of assay: Antiproliferative activity against human A549 cells assessed as inhibition of cell growth incubated for 72 hrs in presence of 1-(4-(piperidin-1-ylsulfonyl)phenyl)-3-(pyridin-3-ylmethyl)thiourea by CCK8 assay. Format: functional, cell-based. The conditions noted are these: A549, 72 h. (Tetrazolium dyes change colour on reduction, which living cells bring about.)

The target in assay [6] is Retinal rod rhodopsin-sensitive cGMP 3',5'-cyclic phosphodiesterase subunit delta (Homo sapiens, UniProt O43924).
Chain of Retinal rod rhodopsin-sensitive cGMP 3',5'-cyclic phosphodiesterase subunit delta (O43924 whole entry): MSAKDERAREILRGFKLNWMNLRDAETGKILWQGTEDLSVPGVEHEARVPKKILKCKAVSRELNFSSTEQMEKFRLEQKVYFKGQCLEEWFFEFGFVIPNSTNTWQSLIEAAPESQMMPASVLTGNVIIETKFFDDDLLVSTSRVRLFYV
Assay [7] relates to HCT-116. Nature of the assay: Antiproliferative activity against human HCT-116 cells assessed as inhibition of cell growth incubated for 72 hrs in presence of 1-(4-(piperidin-1-ylsulfonyl)phenyl)-3-(pyridin-3-ylmethyl)thiourea by CCK8 assay. The class given is functional, cell-based. Conditions: HCT-116, 72 h.
The test system of assay [8] is MIA PaCa-2. Nature of the assay: Antitumor activity against human MIA PaCa-2 cells xenografted in female BALB/C nude mouse assessed as tumor growth inhibition at 20 mg/kg, ip co-administered with 1-(4-(piperidin-1-ylsulfonyl)phenyl)-3-(pyridin-3-ylmethyl)thiourea once daily for 21 days relative to control. Format: functional. The conditions noted are these: MIA PaCa-2, 504 h, time 21 day, read-out: TGI.

For assay [9], the system named is MIA PaCa-2. Nature of the assay: Antitumor activity against human MIA PaCa-2 cells xenografted in female BALB/C nude mouse assessed as tumor growth inhibition at 20 mg/kg, ip administered once daily for 21 days relative to control. Conditions: MIA PaCa-2, 504 h, read-out: TGI. For orientation: In xenograft studies the graft and the host belong to different species.

In assay [10] the test system is MIA PaCa-2. Nature of the assay: Antiproliferative activity against human MIA PaCa-2 cells assessed as inhibition of cell growth incubated for 72 hrs in presence of 1-(4-(piperidin-1-ylsulfonyl)phenyl)-3-(pyridin-3-ylmethyl)thiourea by CCK8 assay. The class given is functional, cell-based. Conditions: MIA PaCa-2, 72 h.
For assay [11], the system named is MIA PaCa-2. Kind of assay: Synergistic antiproliferative activity against human MIA PaCa-2 cells harboring KRAS G12C mutant assessed as inhibition of cell growth by measuring combination index at 1:2 molar ratio of test compound:1-(4-(piperidin-1-ylsulfonyl)phenyl)-3-(pyridin-3-ylmethyl)thiourea by chou-talalay method. Format: functional.

Molecules are shown by their SMILES.

As to `O=C(/C=C/c1cccnc1)Nc1ccc(S(=O)(=O)N(Cc2ccc(Cl)cc2)C2CCCC2)cc1`, the IC50 (commonly the concentration needed to halve the response being measured) in the assay with MIA PaCa-2 [1] was found to be 36 nM; in the assay on HCT-116 [2] it was 711 nM; with A549 [3], 14 nM; in assay [4], 266 nM.
Turning to `Cc1ccc(-n2nc3c(=O)n(CCC(=O)N4CCC(N5C(=O)c6ccccc6NC5c5ccccc5F)CC4)nc(C)c3c2C)cc1` (centres undefined), the IC50 was above 20000 nM in the assay with MIA PaCa-2 [1]; 39 nM in the assay with A549 [5]; 6870 nM in the assay on HCT-116 [2]; 233 nM in the assay on HCT-116 [7]; above 20000 nM in the assay on A549 [3]; 130 nM in the assay on MIA PaCa-2 [10]. Further, the Kd – broadly, the concentration at which binding is half-saturated – in [6] was 5.16 nM. Also, the inhibition in vivo at 20 mg/kg turned out to be 44.1% in the assay on MIA PaCa-2 [8] and 26.8% in the assay with MIA PaCa-2 [9]. For the same compound, the CI in the assay with MIA PaCa-2 [11] was below 1.
